Organism: Rattus norvegicus
Test: DrugMatrix - Regimen: Daily Repeat
Type: toxicity, organism-based, Sprague-Dawley
Parameters: regimen Daily Repeat, gender Male, age 6-8 weeks
Conditions: in vivo, po, route oral GAVAGE, vehicle .5 % CMC; for BASOPHIL / EOSINOPHIL / ERYTHROCYTE COUNT / HEMATOCRIT / LEUKOCYTE COUNT / LYMPHOCYTE / MEAN CORPUSCULAR HEMOGLOBIN / MEAN CORPUSCULAR HEMOGLOBIN CONCENTRATION / MONOCYTE / NEUTROPHIL / PLATELET COUNT / HEMOGLOBIN / MEAN CORPUSCULAR VOLUME: tissue Blood; for ALANINE AMINOTRANSFERASE / ALBUMIN / ASPARTATE AMINOTRANSFERASE / BLOOD UREA NITROGEN / CHOLESTEROL / CREATINE PHOSPHOKINASE / CREATININE / GLUCOSE / PHOSPHORUS / POTASSIUM / SODIUM / TOTAL PROTEIN / ALKALINE PHOSPHATASE: tissue Plasma
[1] = 0 mg/kg, 72 h, dose level Control, time 3 day
[2] = 0 mg/kg, 120 h, dose level Control, time 5 day
[3] = […], 72 h, dose 0.77 mg/Kg, dose level Low, time 3 day
[4] = […], 72 h, dose 7.5 mg/Kg, dose level High, time 3 day
[5] = […], 120 h, dose 0.77 mg/Kg, dose level Low, time 5 day
[6] = […], 120 h, dose 7.5 mg/Kg, dose level High, time 5 day

For IVERMECTIN, the BASOPHIL [1] was 0%, the EOSINOPHIL [1] was 0.33% and the “ERYTHROCYTE COUNT” value [1] was 6.03 x10E6/uL. The HEMATOCRIT [1] was 38.8%, the “LEUKOCYTE COUNT” value [1] was 10.64 x10E3/uL and the LYMPHOCYTE [1] was 83.33%. The “MEAN CORPUSCULAR HEMOGLOBIN” value [1] was 23.64 pg, the “MEAN CORPUSCULAR HEMOGLOBIN CONCENTRATION” value [1] was 36.74 G/DL and the MONOCYTE [1] was 3.33%. For the same sequence, the NEUTROPHIL [1] was 13%, the “PLATELET COUNT” value [1] was 1264.4 x10E3/uL and the “ALANINE AMINOTRANSFERASE” value [1] was 38.83 u/L. The ALBUMIN [1] was 3.55 G/DL, the “ASPARTATE AMINOTRANSFERASE” value [1] was 66.17 u/L and the “BLOOD UREA NITROGEN” value [1] was 15.67 mg/dL. The CHOLESTEROL [1] was 76.5 mg/dL, the “CREATINE PHOSPHOKINASE” value [1] was 166.83 u/L and the CREATININE [1] was 0.52 mg/dL. It also gave a GLUCOSE [1] of 173.17 mg/dL, a PHOSPHORUS [1] of 11.68 mg/dL and a POTASSIUM [1] of 6.43 MEQ/L. For the same sequence, the SODIUM [1] was 149.5 MEQ/L, the “TOTAL PROTEIN” value [1] was 5.93 G/DL and the BASOPHIL [2] was 0%. The EOSINOPHIL [2] was 0%, the “ERYTHROCYTE COUNT” value [2] was 5.88 x10E6/uL and the HEMATOCRIT [2] was 37.87%. For the same sequence, the HEMOGLOBIN [2] was 14.48 G/DL, the “LEUKOCYTE COUNT” value [2] was 12.43 x10E3/uL and the LYMPHOCYTE [2] was 84.17%. For the same sequence, the “MEAN CORPUSCULAR HEMOGLOBIN” value [2] was 24.65 pg, the “MEAN CORPUSCULAR HEMOGLOBIN CONCENTRATION” value [2] was 38.25 G/DL and the “MEAN CORPUSCULAR VOLUME” value [2] was 64.47 fL. The MONOCYTE [2] was 4.33%, the NEUTROPHIL [2] was 11.5% and the “PLATELET COUNT” value [2] was 1182.33 x10E3/uL. The “ALANINE AMINOTRANSFERASE” value [2] was 38.67 u/L, the ALBUMIN [2] was 3.55 G/DL and the “ALKALINE PHOSPHATASE” value [2] was 342.5 u/L. For the same sequence, the “ASPARTATE AMINOTRANSFERASE” value [2] was 63.33 u/L, the “BLOOD UREA NITROGEN” value [2] was 15.5 mg/dL and the CHOLESTEROL [2] was 75.5 mg/dL. For the same sequence, the “CREATINE PHOSPHOKINASE” value [2] was 142.5 u/L, the CREATININE [2] was 0.62 mg/dL and the GLUCOSE [2] was 165.17 mg/dL. For the same sequence, the PHOSPHORUS [2] was 10.87 mg/dL, the POTASSIUM [2] was 6.85 MEQ/L and the SODIUM [2] was 150.17 MEQ/L. The “TOTAL PROTEIN” value [2] was 5.93 G/DL, the BASOPHIL [3] was 0% and the EOSINOPHIL [3] was 0%. For the same sequence, the “ERYTHROCYTE COUNT” value [3] was 5.86 x10E6/uL, the HEMATOCRIT [3] was 37.37% and the HEMOGLOBIN [3] was 14 G/DL. For the same sequence, the “LEUKOCYTE COUNT” value [3] was 13.5 x10E3/uL, the LYMPHOCYTE [3] was 81.33% and the “MEAN CORPUSCULAR HEMOGLOBIN” value [3] was 23.97 pg. For the same sequence, the “MEAN CORPUSCULAR HEMOGLOBIN CONCENTRATION” value [3] was 37.5 G/DL, the MONOCYTE [3] was 4% and the NEUTROPHIL [3] was 14.67%. The “PLATELET COUNT” value [3] was 1163.33 x10E3/uL, the BASOPHIL [4] was 0% and the EOSINOPHIL [4] was 0%. For the same sequence, the “ERYTHROCYTE COUNT” value [4] was 6.06 x10E6/uL, the HEMATOCRIT [4] was 37.9% and the HEMOGLOBIN [4] was 13.7 G/DL. For the same sequence, the “LEUKOCYTE COUNT” value [4] was 13 x10E3/uL, the LYMPHOCYTE [4] was 92% and the “MEAN CORPUSCULAR HEMOGLOBIN” value [4] was 22.6 pg. For the same sequence, the “MEAN CORPUSCULAR HEMOGLOBIN CONCENTRATION” value [4] was 36.1 G/DL, the MONOCYTE [4] was 4% and the NEUTROPHIL [4] was 4%. For the same sequence, the “PLATELET COUNT” value [4] was 1400 x10E3/uL, the “ALANINE AMINOTRANSFERASE” value [3] was 35 u/L and the “ALKALINE PHOSPHATASE” value [3] was 418 u/L. For the same sequence, the “ASPARTATE AMINOTRANSFERASE” value [3] was 56 u/L, the “BLOOD UREA NITROGEN” value [3] was 12.67 mg/dL and the CHOLESTEROL [3] was 77.33 mg/dL. For the same sequence, the “CREATINE PHOSPHOKINASE” value [3] was 149.33 u/L, the CREATININE [3] was 0.5 mg/dL and the PHOSPHORUS [3] was 13.27 mg/dL. For the same sequence, the POTASSIUM [3] was 6.9 MEQ/L, the SODIUM [3] was 150.33 MEQ/L and the “TOTAL PROTEIN” value [3] was 5.73 G/DL. For the same sequence, the “ALANINE AMINOTRANSFERASE” value [4] was 31 u/L, the “ALKALINE PHOSPHATASE” value [4] was 420 u/L and the “ASPARTATE AMINOTRANSFERASE” value [4] was 57 u/L. For the same sequence, the CHOLESTEROL [4] was 70 mg/dL, the “CREATINE PHOSPHOKINASE” value [4] was 190 u/L and the CREATININE [4] was 0.5 mg/dL. It also gave a PHOSPHORUS [4] of 13.3 mg/dL, a POTASSIUM [4] of 6.93 MEQ/L and an SODIUM [4] of 150.33 MEQ/L. For the same sequence, the BASOPHIL [5] was 0%, the EOSINOPHIL [5] was 0% and the “ERYTHROCYTE COUNT” value [5] was 5.85 x10E6/uL. The HEMATOCRIT [5] was 37.25%, the HEMOGLOBIN [5] was 14 G/DL and the “LEUKOCYTE COUNT” value [5] was 11.3 x10E3/uL. For the same sequence, the LYMPHOCYTE [5] was 94%, the “MEAN CORPUSCULAR HEMOGLOBIN” value [5] was 23.95 pg and the “MEAN CORPUSCULAR HEMOGLOBIN CONCENTRATION” value [5] was 37.6 G/DL. For the same sequence, the MONOCYTE [5] was 0%, the NEUTROPHIL [5] was 6% and the “PLATELET COUNT” value [5] was 1300.5 x10E3/uL. The BASOPHIL [6] was 0%, the EOSINOPHIL [6] was 0.33% and the “ERYTHROCYTE COUNT” value [6] was 6.11 x10E6/uL. The HEMATOCRIT [6] was 40.07%, the HEMOGLOBIN [6] was 15 G/DL and the “LEUKOCYTE COUNT” value [6] was 16.37 x10E3/uL. The LYMPHOCYTE [6] was 90%, the “MEAN CORPUSCULAR HEMOGLOBIN CONCENTRATION” value [6] was 37.43 G/DL and the “MEAN CORPUSCULAR VOLUME” value [6] was 65.57 fL. For the same sequence, the MONOCYTE [6] was 1%, the “PLATELET COUNT” value [6] was 1335.33 x10E3/uL and the “ALANINE AMINOTRANSFERASE” value [5] was 36.33 u/L. For the same sequence, the “ALKALINE PHOSPHATASE” value [5] was 489 u/L, the “ASPARTATE AMINOTRANSFERASE” value [5] was 59.67 u/L and the “BLOOD UREA NITROGEN” value [5] was 15.67 mg/dL. For the same sequence, the CHOLESTEROL [5] was 69.67 mg/dL, the “CREATINE PHOSPHOKINASE” value [5] was 135.67 u/L and the CREATININE [5] was 0.53 mg/dL. For the same sequence, the GLUCOSE [5] was 195.33 mg/dL, the PHOSPHORUS [5] was 13.07 mg/dL and the POTASSIUM [5] was 6.87 MEQ/L. For the same sequence, the “TOTAL PROTEIN” value [5] was 5.7 G/DL, the “ALANINE AMINOTRANSFERASE” value [6] was 29.33 u/L and the “ALKALINE PHOSPHATASE” value [6] was 361 u/L. For the same sequence, the “ASPARTATE AMINOTRANSFERASE” value [6] was 51.67 u/L, the “BLOOD UREA NITROGEN” value [6] was 15.67 mg/dL and the CHOLESTEROL [6] was 64.67 mg/dL. The “CREATINE PHOSPHOKINASE” value [6] was 155.67 u/L, the CREATININE [6] was 0.53 mg/dL and the GLUCOSE [6] was 166.33 mg/dL. For the same sequence, the PHOSPHORUS [6] was 13.37 mg/dL, the POTASSIUM [6] was 7.1 MEQ/L and the SODIUM [6] was 147 MEQ/L. For the same sequence, the “TOTAL PROTEIN” value [6] was 5.7 G/DL.

Source: ChEMBL document CHEMBL3885881, “DrugMatrix”
